In ChEMBL document CHEMBL3885861, “Open TG-GATES”:

Species on record: Rattus norvegicus
Assay: Open TG-GATES - Regimen: Daily Repeat
Assay type: toxicity, organism-based, Sprague-Dawley
Design: regimen Daily Repeat, gender Male, age 6 weeks
Settings: in vivo, po, 2000 mg/kg, route gavage, dose level High; for APTT / Bas / Eos / Fbg / Hb / Ht / Lym / MCH / MCHC / MCV / Mono / Neu / PT / Plat / RBC / Ret / WBC: tissue Blood; for KIDNEY_L / KIDNEY_R / KIDNEY_TOTAL: tissue Kidney; for LIVER: tissue Liver; for A/G / ALP / ALT / AST / BUN / CRE / Ca / Cl / DBIL / GLC / IP / K / LDH / Na / PL / RALB / TBIL / TC / TG / TP / gamma-GTP: tissue Plasma

Structure (SMILES): COc1ccc(O)c(C(C)(C)C)c1.COc1ccc(O)cc1C(C)(C)C [BUTYLATED HYDROXYANISOLE]
- TERMINAL_BW (72 h, time 3 day): 199.9 g
- APTT (72 h, time 3 day): 18.9 s
- Bas (72 h, time 3 day): 0.2%
- Eos (72 h, time 3 day): 0.7%
- Fbg (72 h, time 3 day): 288 mg/dL
- Hb (72 h, time 3 day): 13.9 g/dL
- Ht (72 h, time 3 day): 40.3%
- Lym (72 h, time 3 day): 78.1%
- MCH (72 h, time 3 day): 20.7 pg
- MCHC (72 h, time 3 day): 34.6%
- MCV (72 h, time 3 day): 59.8 fL
- Mono (72 h, time 3 day): 2.8%
- Neu (72 h, time 3 day): 17.5%
- PT (72 h, time 3 day): 11.8 s
- Plat (72 h, time 3 day): 152.4 x10_4/uL
- RBC (72 h, time 3 day): 673.2 x10_4/ul
- Ret (72 h, time 3 day): 2.1%
- WBC (72 h, time 3 day): 93.2 x10_2/uL
- KIDNEY_L (72 h, time 3 day): 0.9 g
- KIDNEY_R (72 h, time 3 day): 0.9 g
- KIDNEY_TOTAL (72 h, time 3 day): 1.8 g
- LIVER (72 h, time 3 day): 12.3 g
- A/G (72 h, time 3 day): 0.8
- ALP (72 h, time 3 day): 1414.4 IU/L
- ALT (72 h, time 3 day): 69.4 IU/L
- AST (72 h, time 3 day): 76.4 IU/L
- BUN (72 h, time 3 day): 14.2 mg/dL
- CRE (72 h, time 3 day): 0.2 mg/dL
- Ca (72 h, time 3 day): 10.9 mg/dL
- Cl (72 h, time 3 day): 108.2 meq/L
- DBIL (72 h, time 3 day): 0.036 mg/dL
- GLC (72 h, time 3 day): 152 mg/dL
- IP (72 h, time 3 day): 5.5 mg/dL
- K (72 h, time 3 day): 3.6 meq/L
- LDH (72 h, time 3 day): 70.2 IU/L
- Na (72 h, time 3 day): 143 meq/L
- PL (72 h, time 3 day): 197 mg/dL
- RALB (72 h, time 3 day): 2.5 g/dL
- TBIL (72 h, time 3 day): 0.09 mg/dL
- TC (72 h, time 3 day): 113 mg/dL
- TG (72 h, time 3 day): 106.4 mg/dL
- TP (72 h, time 3 day): 5.5 g/dL
- gamma-GTP (72 h, time 3 day): 2.8 IU/L
- TERMINAL_BW ([…], time 7 day): 225.2 g
- TERMINAL_BW ([…], time 14 day): 262.1 g
- TERMINAL_BW ([…], time 28 day): 342.7 g
- APTT ([…], time 7 day): 15.8 s
- Bas ([…], time 7 day): 0.3%
- Eos ([…], time 7 day): 0.5%
- Fbg ([…], time 7 day): 316.8 mg/dL
- Hb ([…], time 7 day): 13.2 g/dL
- Ht ([…], time 7 day): 38.2%
- Lym ([…], time 7 day): 76.9%
- MCH ([…], time 7 day): 20.2 pg
- MCHC ([…], time 7 day): 34.6%
- MCV ([…], time 7 day): 58.3 fL
- Mono ([…], time 7 day): 3.4%
- Neu ([…], time 7 day): 18.2%
- PT ([…], time 7 day): 11.6 s
- Plat ([…], time 7 day): 176.3 x10_4/uL
- RBC ([…], time 7 day): 655.8 x10_4/ul
- Ret ([…], time 7 day): 4.1%
- WBC ([…], time 7 day): 146.4 x10_2/uL
- APTT ([…], time 14 day): 18.4 s
- Bas ([…], time 14 day): 0.2%
- Eos ([…], time 14 day): 0.6%
- Fbg ([…], time 14 day): 295.6 mg/dL
- Hb ([…], time 14 day): 13.6 g/dL
- Ht ([…], time 14 day): 39.4%
- Lym ([…], time 14 day): 71.9%
- MCH ([…], time 14 day): 19.7 pg
- MCHC ([…], time 14 day): 34.6%
- MCV ([…], time 14 day): 56.9 fL
- Mono ([…], time 14 day): 2.6%
- Neu ([…], time 14 day): 23.8%
- PT ([…], time 14 day): 12.1 s
- Plat ([…], time 14 day): 130.9 x10_4/uL
- RBC ([…], time 14 day): 693.8 x10_4/ul
- Ret ([…], time 14 day): 3.8%
- WBC ([…], time 14 day): 103.7 x10_2/uL
- APTT ([…], time 28 day): 22.8 s
- Bas ([…], time 28 day): 0.4%
- Eos ([…], time 28 day): 0.7%
- Fbg ([…], time 28 day): 317.2 mg/dL
- Hb ([…], time 28 day): 14.7 g/dL
- Ht ([…], time 28 day): 41.8%
- Lym ([…], time 28 day): 75.1%
- MCH ([…], time 28 day): 19 pg
- MCHC ([…], time 28 day): 35.3%
- MCV ([…], time 28 day): 53.8 fL
- Mono ([…], time 28 day): 2.1%
- Neu ([…], time 28 day): 21%
- PT ([…], time 28 day): 12.5 s
- Plat ([…], time 28 day): 129.2 x10_4/uL
- RBC ([…], time 28 day): 778.2 x10_4/ul
- Ret ([…], time 28 day): 2.2%
- WBC ([…], time 28 day): 110.2 x10_2/uL
- KIDNEY_L ([…], time 7 day): 0.9 g
- KIDNEY_R ([…], time 7 day): 0.9 g
- KIDNEY_TOTAL ([…], time 7 day): 1.8 g
- KIDNEY_L ([…], time 14 day): 1 g
- KIDNEY_R ([…], time 14 day): 1 g
- KIDNEY_TOTAL ([…], time 14 day): 2 g
- KIDNEY_L ([…], time 28 day): 1.2 g
- KIDNEY_R ([…], time 28 day): 1.2 g
- KIDNEY_TOTAL ([…], time 28 day): 2.4 g
- LIVER ([…], time 7 day): 12.6 g
- LIVER ([…], time 14 day): 15.3 g
- LIVER ([…], time 28 day): 19.6 g
- A/G ([…], time 7 day): 0.8
- ALP ([…], time 7 day): 797 IU/L
- ALT ([…], time 7 day): 44.8 IU/L
- AST ([…], time 7 day): 61.2 IU/L
- BUN ([…], time 7 day): 17 mg/dL
- CRE ([…], time 7 day): 0.2 mg/dL
- Ca ([…], time 7 day): 11.5 mg/dL
- Cl ([…], time 7 day): 105.4 meq/L
- DBIL ([…], time 7 day): 0.032 mg/dL
- GLC ([…], time 7 day): 157 mg/dL
- IP ([…], time 7 day): 7.7 mg/dL
- K ([…], time 7 day): 3.4 meq/L
- LDH ([…], time 7 day): 62.8 IU/L
- Na ([…], time 7 day): 143.8 meq/L
- PL ([…], time 7 day): 180 mg/dL
- RALB ([…], time 7 day): 2.7 g/dL
- TBIL ([…], time 7 day): 0.066 mg/dL
- TC ([…], time 7 day): 102.6 mg/dL
- TG ([…], time 7 day): 97.2 mg/dL
- TP ([…], time 7 day): 6.1 g/dL
- gamma-GTP ([…], time 7 day): 2.4 IU/L
- A/G ([…], time 14 day): 0.8
- ALP ([…], time 14 day): 1011.2 IU/L
- ALT ([…], time 14 day): 39.4 IU/L
- AST ([…], time 14 day): 59.2 IU/L
- BUN ([…], time 14 day): 18.4 mg/dL
- CRE ([…], time 14 day): 0.2 mg/dL
- Ca ([…], time 14 day): 11.2 mg/dL
- Cl ([…], time 14 day): 105.6 meq/L
- DBIL ([…], time 14 day): 0.026 mg/dL
- GLC ([…], time 14 day): 159.8 mg/dL
- IP ([…], time 14 day): 6.2 mg/dL
- K ([…], time 14 day): 3.4 meq/L
- LDH ([…], time 14 day): 43.6 IU/L
- Na ([…], time 14 day): 144.8 meq/L
- PL ([…], time 14 day): 204.4 mg/dL
- RALB ([…], time 14 day): 2.8 g/dL
- TBIL ([…], time 14 day): 0.062 mg/dL
- TC ([…], time 14 day): 108 mg/dL
- TG ([…], time 14 day): 153.6 mg/dL
- TP ([…], time 14 day): 6.2 g/dL
- gamma-GTP ([…], time 14 day): 3 IU/L
- A/G ([…], time 28 day): 0.7
- ALP ([…], time 28 day): 696 IU/L
- ALT ([…], time 28 day): 36.6 IU/L
- AST ([…], time 28 day): 58 IU/L
- BUN ([…], time 28 day): 19.8 mg/dL
- CRE ([…], time 28 day): 0.2 mg/dL
- Ca ([…], time 28 day): 11.3 mg/dL
- Cl ([…], time 28 day): 104.8 meq/L
- DBIL ([…], time 28 day): 0.022 mg/dL
- GLC ([…], time 28 day): 174.8 mg/dL
- IP ([…], time 28 day): 5.6 mg/dL
- K ([…], time 28 day): 3.5 meq/L
- LDH ([…], time 28 day): 58.2 IU/L
- Na ([…], time 28 day): 145.8 meq/L
- PL ([…], time 28 day): 198.8 mg/dL
- RALB ([…], time 28 day): 2.8 g/dL
- TBIL ([…], time 28 day): 0.068 mg/dL
- TC ([…], time 28 day): 109 mg/dL
- TG ([…], time 28 day): 121 mg/dL
- TP ([…], time 28 day): 6.6 g/dL
- gamma-GTP ([…], time 28 day): 2.6 IU/L
